Patent publication US20260085069A1, “PRODRUGS” (Cambridge Enterprise Limited, priority 2022, published 2026)
In brackets after ≈: the same amount, converted by molar mass.

Key:
[1] = Stability in aqueous media (FaSSIF, SGF, PBS); type: physicochemical; conditions: for FaSSIF (pH 6.5) % remaining 1 h / FaSSIF (pH 6.5) % remaining 6 h / FaSSIF (pH 6.5) % remaining 24 h: FaSSIF pH 6.5, 37° C.; for PBS (pH 7.4) % remaining 1 h / PBS (pH 7.4) % remaining 6 h / PBS (pH 7.4) % remaining 24 h: PBS pH 7.4, 37° C.; for SGF (pH 1.2) % remaining 1 h / SGF (pH 1.2) % remaining 6 h / SGF (pH 1.2) % remaining 24 h: SGF pH 1.2, 37° C.
Method: 10 μL of a 10 mM stock solution of the Examples were dissolved in 490 μL DMSO to afford […] working solution SGF (pH 1.2):
Dissolve 0.04 g NaCl and 0.064 g pepsin in 0.14 mL HCl and add sufficient water to 20 mL volume. The pH of the test solution was 1.20±0.05.
0.056% (w/v) lecithin, 0.161% (w/v) sodium taurocholate, 0.39% (w/v) monobasic potassium phosphate, 0.77% (w/v) potassium chloride, deionized H2O. The pH of the test solution was 6.5±0.05.
30 mL of 10×PBS (pH7.4) was added into a 50 mL flask and diluted with water. The solution was mixed well and adjusted to pH 7.4 with 1 N HCl.
2 μL of the 200 μL working solution of the Examples was added into 96-deep-well plates for TO, T60, T120, T360 and T1440 timepoints. Duplicates were prepared.
Stability studies were commenced by the addition of 198 μL of the required media (e.g. Simulated Gastric Fluid pH 1.2 [SGF], Simulated Fasted State Intestinal Fluid pH 6.5 [FaSSIF]) and Phosphate Buffered Saline pH 7.4 [PBS]) to each well except TO. The samples were incubated at 37° C. at 600 rpm for the appointed time. The samples at the corresponding timepoint were removed and immediately mixed with 400 μL of cold acetonitrile containing 200 ng/mL tolbutamide and labetalol (internal standard). The samples were centrifuged at 4000 rpm at 4° C. for 20 minutes. 60 μL of the supernatant was removed and mixed with 180 μL purified water and thoroughly mixed and analysed by LCMS (Shimadzu LC 30-AD, ACQUITY UPLC BEH Phenyl 1.7 um 2.1*50 mm Part No. 186002884, with mobile phase A: 0.1% formic acid in water, mobile phase B: 0.1% formic acid in acetonitrile). Formation of parent was also monitored as a metabolite.
Samples were analysed by Mass Spectrometry QTRAP 6500+.

[2] = Solubility in simulated fluids (kinetic solubility, 24 hours); type: physicochemical; conditions: thermodynamic from solid, 24 hour timepoint, room temperature
Method: A known quantity of the Examples and control compounds were weighed into a suitable vessel (whatman miniuniprep vials) and a known volume of the required media was added (e.g. Simulated Gastric Fluid pH 1.2 [SGF], Simulated Fasted State Intestinal Fluid pH 6.5 [FaSSIF] or Phosphate Buffered Saline pH 7.4 [PBS]). The samples were subjected to vortex mixing for 2 minutes followed by agitation on a shaker for 24 hours at room temperature at 800 rpm.

[3] = in vitro; type: in vitro ADME; conditions: rat intestinal microsomes, NADPH, 37° C.
Method: 5 μL of a 10 mM stock solution of the Examples were dissolved in 495 μL acetonitrile to afford 500 μL working solution.
The appropriate amount of β-Nicotinamide adenine dinucleotide phosphate reduced form, tetrasodium salt; NADPH-4Na (NADPH) powder was weighed and diluted into a 10 mM MgCl2 solution (working solution concentration: 10 unit/mL; final concentration in reaction system: 1 unit/mL).
The appropriate concentrations of rat intestinal microsome (Xenotech, cat. No R1000.1) working solutions were prepared in 100 mM potassium phosphate buffer.
Cold (4° C.) acetonitrile (ACN) containing 200 ng/mL tolbutamide and 200 ng/mL labetalol as internal standards (IS).
Incubation plates were pre-incubated for 10 minutes at 37° C. with constant shaking. 54 μL was transferred from Incubation plates into a blank plate and then 6 μL NADPH cofactor and 180 μL quenching solution was added to the Incubation plates. 5 μL Example working solution (100 μM) was also added to the Incubation plates and mixed thoroughly.
The T60 Incubation plate was mixed thoroughly and for the 0-min timepoint, 54 μL was transferred into a Quenching plate (containing 180 μL quenching solution and 6 μL NADPH cofactor). 44 μL NADPH cofactor was then added to the T60 Incubation plate and incubated at 37° C. for 60 min while shaking. At 5, 15, 30, 45, and 60 min, 60 μL samples were transferred from T60 Incubation plate into a Quenching plate (containing 180 μl quenching solution). For the NCF60 Incubation plate, 50 μL of buffer was added and mixed thoroughly before incubation at 37° C. for 60 min while shaking, at the 60-min time point 60 μL was transferred to the Quenching plate (containing 180 μl quenching solution). All sampling plates were shaken for 10 min, then centrifuged at 4000 rpm for 20 minutes at 4° C. 80 μL supernatant was transferred into 240 μL HPLC water, and mixed for 10 min.

[4] = type: in vitro ADME; conditions: rat plasma, 37° C.
Method: 5 μL of a 10 mM stock solution of the Examples were dissolved in 495 μL DMSO to afford 500 μL working solution Assay procedure:
98 μL plasma was added to each well of a 96-well reaction plate, using one plate per timepoint (Blank, TO, T10, T30, T60, and T120). 2 μL of working solution was added to each well of the reaction plates except Blank. Each plate was incubated at 37° C. for the indicated timepoint (0, 10, 30, 60, 120 minutes). At the end of incubation, 400 μL of stop solution (200 ng/mL tolbutamide and 200 ng/mL labetalol in 0.1% FA in ACN) was added to precipitate protein. The plates were then sealed and shaken for 20 minutes before centrifugation at 4000 rpm for 20 minutes. […] Formation of parent was also monitored as a metabolite.

[5] = simulated gastric fluid, SGF (pH 1.2)

Structure (SMILES) | FaSSIF (pH 6.5) % remaining 1 h [1] [%] | FaSSIF (pH 6.5) % remaining 6 h [1] [%] | FaSSIF (pH 6.5) % remaining 24 h [1] [%] | PBS (pH 7.4) % remaining 1 h [1] [%] | PBS (pH 7.4) % remaining 6 h [1] [%] | PBS (pH 7.4) % remaining 24 h [1] [%] | SGF (pH 1.2) % remaining 1 h [1] [%] | SGF (pH 1.2) % remaining 6 h [1] [%] | SGF (pH 1.2) % remaining 24 h [1] [%] | solubility kinetic at 24 h [2, 5] [µg/mL] | solubility kinetic at 24 h ([2]; FaSSIF (pH 6.5)) [µg/mL] | CIint(mic) [3] [µL/min/mg] | half-life at 1 µM [3] [min] | % Example remaining 0 min ([4]; 0 min) [%] | Example concentration (nM) 0 min ([4]; 0 min) [nM] | % Example remaining 10 min ([4]; 10 min) [%] | Example concentration (nM) 10 min ([4]; 10 min) [nM]
CC(C)(C)OC(=O)c1ccc2c(c1)nc(OCCOCCCCNCc1cc(F)c(OC(F)(F)F)c(F)c1)c1ccncc12 [Example 9, tert-butyl 5-(2-(4-((3,5-difluoro-4-(trifluoromethoxy)benzyl)amino)butoxy)ethoxy)benzo[c][2,6]naphthyridine-8-carboxylate] | 92.1 | 98.3 | 96.1 | 80.9 | 27.9 | 10.0 | 102.1 | 57.9 | 19.6 | 16.1 (≈ 25.9 µM) | 88.3 (≈ 142 µM) | 78.9 | 29.3 | – | – | – | –
CCC(=O)OCOC(=O)c1ccc2c(c1)nc(OCCOCCCCNCc1cc(F)c(OC(F)(F)F)c(F)c1)c1ccncc12 [Example 12, (propionyloxy)methyl 5-(2-(4-((3,5-difluoro-4-(trifluoromethoxy)benzyl)amino)butoxy)ethoxy)benzo[c][2,6]naphthyridine-8-carboxylate] | 94.9 | 96.5 | 99.8 | 76.4 | 6.3 | 1.1 | 101.3 | 49.5 | 10.1 | 7.4 (≈ 11.4 µM) | 97.5 (≈ 150 µM) | 90.8 | 25.4 | – | – | – | –
O=C(OCOC(=O)c1ccc2c(c1)nc(OCCOCCCCNCc1cc(F)c(OC(F)(F)F)c(F)c1)c1ccncc12)OC1CCOCC1 [Example 16, ((((tetrahydro-2H-pyran-4-yl)oxy)carbonyl)oxy)methyl 5-(2-(4-((3,5-difluoro-4-(trifluoromethoxy)benzyl)amino)butoxy)ethoxy)benzo[c][2,6]naphthyridine-8-carboxylate] | 95.5 | 104.4 | 95.7 | 93.8 | 37.9 | 7.1 | 95.4 | 63.0 | 19.4 | 39.4 (≈ 54.4 µM) | 99.4 (≈ 137 µM) | – | – | 100.0 | 1845.9 | 0.1 | 2.7
